{P} = phosphate
Columns and labels:
[1] = system: p53, E2F1 transcription factor; assay: Western analysis of p53 and E2F1 in Jurkat cells; assay type: cell-based, human; details: by 24 hours after addition
Saos-2 cells = assay: FACS analysis of Saos-2 cells; assay type: cell-based; details: Saos-2 (telomerase negative), 40 μM, 48 hours
Procedure: FIG. 18a: FACS profiles from one representative experiment of three with the percentage and standard deviations of cells in each phase of the cell cycle was calculated from triplicate cultures of each condition. FIG. 18b: Western blots with an antibody specific for phospho-p95/Nbs1. Lanes 1, 2 and 3 contained protein from cells treated with diluent, 11mer-1 or 11mer-2, respectively. Control cells (3 hours) were irradiated with 10 Gy of IR (+), or were sham irradiated (−).
Saos-2 cells are an osteosarcoma cell line that is reportedly telomerase negative and maintain telomeres by the ALT pathway. Saos-2 cell lines were treated with either diluent or 40 μM of the indicated oligonucleotide and cells were collected after 48 hours for FACS analysis. […] The results that the effect of the T-oligo in the telomerase negative cells is identical to the response in telomerase positive malignant cell lines.

[2] = system: phospho-p53 serine 15, phospho-p95 serine 343; assay: T-oligo response in fibroblasts with Mre11 siRNA knockdown, Western blot and densitometry; assay type: cell-based, human; details: fibroblasts with significantly reduced MRE11 levels (Mre11 siRNA), 48 hours
Procedure: Normal human neonatal fibroblasts were treated with either 10 pmoles Mre11 siRNA or 10 pmoles control (no homology found in expressed human sequences). Cultures dishes were approximately 60% confluent on the day of siRNA transfection. Transfections were carried out using Lipofectamine 2000 (Invitrogen, Carlsbad, Calif.) following the protocol supplied by the manufacturer. The transfection cocktail was applied to the cells for 5 hours and then replaced with fresh medium alone. The next day, the transfection protocol was repeated. The following day, duplicate cultures were treated with the T-oligo or with diluent alone as a negative control. Cells were then collected 48 hours later and the protein analyzed by Western blot using antibodies specific for phospho-p95 serine 343 (Cell Signaling Technology, Beverly, Mass.), Mre11 (GeneTex, San Antonio, Tex.), phosphor-p53 serine 15 (Cell Signaling Technology) and total p53 (Oncogene, San Diego, Calif.) (FIG. 9). Hela cell lysate was used as a positive control for Mre11. Normal fibroblasts exposed to 10 Gy IR or sham irradiated and collected after one hour served as positive controls for p53 and p95/Nbs1 phosphorylation. The autoradiographs were analyzed by densitometry and the values for the T-oligo samples are expressed relative to the values for the diluent-treated samples (FIG. 10 and FIG. 11).

[3] = system: HT-1080 human fibrosarcoma cells; assay: Clonogenic assay; assay type: cell-based; details: HT-1080, 40 μM for one week, then replated 2 weeks without treatment
Procedure: Cells were treated with diluent, 40 μM T-oligo or complementary oligo for one week, and then assayed. FIG. 15a: Appearance of stained dishes. FIG. 15b: Quantification of clonogenic capacity. Colonies of triplicate cultures were counted and plotted as percentage of diluent treated control.
Human fibrosarcoma cells were treated with diluent alone, 40 μM T-oligo or 40 μM complementary oligo for one week and were then trypsinized and counted. 300 cells were seeded into 60 mm culture dishes in triplicate and then incubated in complete medium for 2 weeks with medium changed twice per week. Subsequently, the cells were fixed for 5 min in 100% methanol. The methanol was then removed and the culture dishes were rinsed briefly with water. The colonies were stained for 10 min in 4% (w/v) methylene blue solution in PBS, washed once again with water, and then counted.
To determine the long-term effect of T-oligo treatment on cell growth, HT-1080 human fibrosarcoma cells were treated with either diluent alone, 40 μM T-oligo or 40 μM complementary control oligo for one week and then an equal number of cells were replated and medium was changed twice per week for 2 weeks with no further treatment, and then stained with methylene blue (FIG. 15a).

p53DD R2F fibroblasts = assay: SA-β-Gal staining, p53DD R2F fibroblasts; assay type: cell-based, human; details: 40 μM, 1 week
Procedure: (§1) FIG. 12a: Immunoblot analysis of p53DD and cdk4^R24C expression. Cells were collected for protein analysis by western blot using 30 μg total protein and probed for total p53 and cdk4. Lanes 1, 2, 3 and 4 contain protein samples from R2F, R2F (p53DD), R2F (cdk4^R24C) and R2F (p53DD/cdk4^R24C) fibroblasts, respective. β-actin was used as a loading control. FIG. 12b: Contribution of p53 and pRb pathways to T-oligo-induced SA-β-Gal activity. R2F fibroblasts and derived transductants were treated with diluent or 40 μM T-oligo for one week and then assayed for SA-β-Gal activity. FIG. 12c: Quantitative analysis of SA-β-Gal positive cells. Cells expressing SA-β-Gal activity were counted and presented as percentage of total cells in the cultures. Averages and standard deviations were calculated from 3 representative fields from each of 3 independent experiments.
(§2) R2F newborn dermal fibroblasts and derived p53DD, […] and p53DD/cdk4^R24C transductants (a generous gift from Dr. James G. Rheinwald of Harvard Medical School) lack a functional p53 pathway, pRb pathway, and both pathways respectively.
(§3) Cells were treated once with diluent alone, 40 μM T-oligo or 40 μM complementary oligo for 1 week without re-feeding. […]
(§4) Cells were treated with either diluent or 40 μM T-oligo for 1 week and then assessed for SA-β-Gal activity. […]

R2F fibroblasts = assay: SA-β-Gal staining, R2F fibroblasts; assay type: cell-based, human; details: 40 μM, 1 week
Procedure: as §1
Cells were treated once with diluent alone, 40 μM T-oligo or 40 μM complementary oligo for 1 week without re-feeding. Cells were then fixed for 3-5 minutes in 2% formaldehyde/0.2% glutaraldehyde and incubated at 37° C. […]
as §4

[4] = system: R2F (p53DD/cdk4^R24C) fibroblasts; assay: SA-β-Gal staining, p53DD/cdk4^R24C R2F fibroblasts; assay type: cell-based, human; details: R2F fibroblasts expressing both p53DD and cdk4^R24C, 40 μM, 1 week
Procedure: as §1, §2, §3, §4

pGTTAGGGTTAG (DNA, 5' {P}, backbone not given here; listed as Homo sapiens) [Oligonucleotide 11mer-1]
level of the E2F1 transcription factor [1]: concomitant increase | p53 level (Western analysis) [1]: increase | S phase arrest (Saos-2 cells): causes an S phase arrest | phospho-p53 response to T-oligo [2]: reduced | phospho-p95/Nbs1 response to T-oligo [2]: absent | clonogenic capacity [3]: 5.7±1.9 % of diluent treated control | SA-β-Gal positive cells (p53DD R2F fibroblasts): 45±4% | SA-β-Gal positive cells (R2F fibroblasts): 65±7% | SA-β-Gal positive cells [4]: 7±1%
